Several values for one entry are separate records, joined by “and”; a condition that tells them apart may be missing. Identical values can stand only once.
Assays:
SfurOBP3 = SfurOBP3 (Sogatella furcifera, UniProt V5T818); assay: Binding of 1-NPN to SfurOBP3 (fluorescence titration); settings: for Fluorescence intensity: OBP3, triplicate columns
Experimental: (§1) Fluorescence competitive binding assays were performed on Tecan Spark 10M (Tecan Group Ltd., Männedorf, Switzerland) with the F96 Black ELIAS Plate (Sangon) ([Khuhro et al., 2017]; [Liu et al., 2017]). The solutions were excited at 337 nm and emission spectra were recorded between 390 and 490 nm. First, to test the binding constants of 1-NPN to the SfurOBPs, a 2.0 µM solution of protein in 50 mM Tris-HCl (pH = 7.4) was titrated with 1 mM 1-NPN to achieve virous concentrations. Next, the competitive binding of each odorant was measured using the 1-NPN as fluorescent reporter and odorant as competitor. The concentrations of protein and 1-NPN were both 2.0 µM, the odorant added after protein and 1-NPN added into the well of ELIAS Plate for 2 min. The final concentrations of each competitor were 2, 4, 6, 8, 10, 12, 14, 16, 18 and 20 µM. After 2 min of odorant added, the fluorescence intensity was measured and recorded. The volume of mixed solution in each well was maintained at 250 µL. Each interaction was performed in triplicates.
(§2) GraphPad Prism 7.0 software (GraphPad Software, Inc., La Jolla, CA, USA) was used to calculated and generated the binding constants (K1−NPN) of 1-NPN to SfurOBPs and relative Scatchard plots ([Ban et al., 2003]; [Li et al., 2016]). Dissociation constant (Ki) of each odorant to SfurOBP was computed from the corresponding IC50 value (the half maximal inhibitory concentration), using the following equation: Ki=[IC50]/(1 + [1-NPN]/K1−NPN), where [1-NPN] is the free concentration of 1-NPN and K1−NPN is the dissociation constant of the complex protein/1-NPN.

SfurOBP1 = SfurOBP1 (Sogatella furcifera, UniProt V5T8N5); assay: Binding of 1-NPN to SfurOBP1 (fluorescence titration); settings: for Fluorescence intensity: OBP1, triplicate columns
Experimental: as §1, §2

SfurOBP11 = SfurOBP11 (Sogatella furcifera, UniProt V5T6E3); assay: Binding of 1-NPN to SfurOBP11 (fluorescence titration); settings: for Fluorescence intensity: OBP11, triplicate columns
Experimental: as §1, §2

SfurOBP2 = SfurOBP2 (Sogatella furcifera, UniProt V5T759); assay: Binding of 1-NPN to SfurOBP2 (fluorescence titration); settings: for Fluorescence intensity: OBP2, triplicate columns
Experimental: as §1, §2

Sequence of SfurOBP11 (V5T6E3 entry or part of it): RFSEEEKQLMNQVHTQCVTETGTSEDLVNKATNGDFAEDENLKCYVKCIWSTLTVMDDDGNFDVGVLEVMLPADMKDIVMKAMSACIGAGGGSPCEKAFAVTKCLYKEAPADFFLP
Sequence of SfurOBP3 (V5T818 entry or part of it): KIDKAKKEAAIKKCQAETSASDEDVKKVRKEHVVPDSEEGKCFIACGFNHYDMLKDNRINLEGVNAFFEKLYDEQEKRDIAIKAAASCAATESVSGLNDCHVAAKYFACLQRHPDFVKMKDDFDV
Sequence of SfurOBP2 (V5T759 entry or part of it): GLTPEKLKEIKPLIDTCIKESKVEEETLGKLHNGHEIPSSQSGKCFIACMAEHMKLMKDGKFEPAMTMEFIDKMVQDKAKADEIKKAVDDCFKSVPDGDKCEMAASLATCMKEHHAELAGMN
Sequence of SfurOBP1 (V5T8N5 entry or part of it): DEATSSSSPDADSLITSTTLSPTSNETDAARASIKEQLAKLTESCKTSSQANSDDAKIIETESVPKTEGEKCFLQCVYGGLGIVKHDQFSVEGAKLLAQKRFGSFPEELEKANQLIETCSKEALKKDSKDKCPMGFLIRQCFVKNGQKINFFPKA

Structure (SMILES): c1ccc(Nc2cccc3ccccc23)cc1 [1-NPN, N-phenyl-1-naphthylamine]
- Fluorescence intensity (SfurOBP3; 1-NPN 2 (unit not given)): 61430 and 58985 and 59650
- Fluorescence intensity (SfurOBP3; 1-NPN 4 (unit not given)): 77503 and 80113 and 80262
- Fluorescence intensity (SfurOBP3; 1-NPN 6 (unit not given)): 85325 and 83919 and 82776
- Fluorescence intensity (SfurOBP3; 1-NPN 8 (unit not given)): 97386 and 97137 and 85039
- Fluorescence intensity (SfurOBP3; 1-NPN 10 (unit not given)): 98049 and 103605 and 94167
- Fluorescence intensity (SfurOBP3; 1-NPN 12 (unit not given)): 100936 and 110967 and 98958
- Fluorescence intensity (SfurOBP3; 1-NPN 14 (unit not given)): 99019 and 113580 and 103187
- Fluorescence intensity (SfurOBP3; 1-NPN 16 (unit not given)): 114929 and 113428 and 104178
- Fluorescence intensity (SfurOBP3; 1-NPN 18 (unit not given)): 121020 and 111471 and 116920
- Fluorescence intensity (SfurOBP3; 1-NPN 20 (unit not given)): 114200 and 113028 and 114937
- Fluorescence intensity (SfurOBP3; 1-NPN 22 (unit not given)): 115221 and 112203 and 110696
- Fluorescence intensity (SfurOBP3; 1-NPN 24 (unit not given)): 120756 and 110811 and 112155
- Fluorescence intensity (SfurOBP3; 1-NPN 26 (unit not given)): 117527 and 109823 and 115694
- Fluorescence intensity (SfurOBP3; 1-NPN 28 (unit not given)): 107913 and 111968 and 118918
- Fluorescence intensity (SfurOBP3; 1-NPN 30 (unit not given)): 110746 and 113690 and 116658
- Kd (SfurOBP3; SfurOBP3, 2.0 µM protein, 50 mM Tris-HCl pH 7.4, read-out: dissociation constant of 1-NPN): 2.42 µM
- Fluorescence intensity (SfurOBP1; 1-NPN 2 (unit not given)): 7934 and 7244 and 7558
- Fluorescence intensity (SfurOBP1; 1-NPN 4 (unit not given)): 14870 and 13520 and 13256
- Fluorescence intensity (SfurOBP1; 1-NPN 6 (unit not given)): 19450 and 20173 and 19826
- Fluorescence intensity (SfurOBP1; 1-NPN 8 (unit not given)): 25948 and 27851 and 26112
- Fluorescence intensity (SfurOBP1; 1-NPN 10 (unit not given)): 30874 and 31162 and 28910
- Fluorescence intensity (SfurOBP1; 1-NPN 12 (unit not given)): 33259 and 35914 and 35970
- Fluorescence intensity (SfurOBP1; 1-NPN 14 (unit not given)): 37528 and 37617 and 40532
- Fluorescence intensity (SfurOBP1; 1-NPN 16 (unit not given)): 43674 and 43309 and 43505
- Fluorescence intensity (SfurOBP1; 1-NPN 18 (unit not given)): 50472 and 51665 and 48009
- Fluorescence intensity (SfurOBP1; 1-NPN 20 (unit not given)): 53471 and 53438 and 53794
- Fluorescence intensity (SfurOBP1; 1-NPN 22 (unit not given)): 54404 and 53461 and 54332
- Fluorescence intensity (SfurOBP1; 1-NPN 24 (unit not given)): 55616 and 55933 and 55336
- Fluorescence intensity (SfurOBP1; 1-NPN 26 (unit not given)): 55005 and 58722 and 54776
- Fluorescence intensity (SfurOBP1; 1-NPN 28 (unit not given)): 60087 and 56565 and 53471
- Fluorescence intensity (SfurOBP1; 1-NPN 30 (unit not given)): 59000 and 55051 and 51066
- Kd (SfurOBP1; SfurOBP1, 2.0 µM protein, 50 mM Tris-HCl pH 7.4, read-out: dissociation constant of 1-NPN): 24.2 µM
- Fluorescence intensity (SfurOBP11; 1-NPN 2 (unit not given)): 34926 and 31369 and 32128
- Fluorescence intensity (SfurOBP11; 1-NPN 4 (unit not given)): 46136 and 60649 and 53421
- Fluorescence intensity (SfurOBP11; 1-NPN 6 (unit not given)): 59058 and 63562 and 67479
- Fluorescence intensity (SfurOBP11; 1-NPN 8 (unit not given)): 73431 and 79398 and 77472
- Fluorescence intensity (SfurOBP11; 1-NPN 10 (unit not given)): 83685 and 83190 and 84209
- Fluorescence intensity (SfurOBP11; 1-NPN 12 (unit not given)): 87527 and 87829 and 87441
- Fluorescence intensity (SfurOBP11; 1-NPN 14 (unit not given)): 113208 and 119321 and 82397
- Fluorescence intensity (SfurOBP11; 1-NPN 16 (unit not given)): 121541 and 129453 and 101542
- Fluorescence intensity (SfurOBP11; 1-NPN 18 (unit not given)): 129684 and 132053 and 101150
- Fluorescence intensity (SfurOBP11; 1-NPN 20 (unit not given)): 142842 and 126669 and 108121
- Fluorescence intensity (SfurOBP11; 1-NPN 22 (unit not given)): 118001 and 129399 and 126785
- Fluorescence intensity (SfurOBP11; 1-NPN 24 (unit not given)): 123359 and 122043 and 121686
- Kd (SfurOBP11; SfurOBP11, 2.0 µM protein, 50 mM Tris-HCl pH 7.4, read-out: dissociation constant of 1-NPN): 10.4 µM
- Fluorescence intensity (SfurOBP2; 1-NPN 2 (unit not given)): 23662 and 22289 and 22010
- Fluorescence intensity (SfurOBP2; 1-NPN 4 (unit not given)): 39603 and 44704 and 31870
- Fluorescence intensity (SfurOBP2; 1-NPN 6 (unit not given)): 50431 and 46158 and 47197
- Fluorescence intensity (SfurOBP2; 1-NPN 8 (unit not given)): 61337 and 63137 and 57001
- Fluorescence intensity (SfurOBP2; 1-NPN 10 (unit not given)): 59819 and 73730 and 69974
- Fluorescence intensity (SfurOBP2; 1-NPN 14 (unit not given)): 64863 and 65896 and 57584
- Fluorescence intensity (SfurOBP2; 1-NPN 16 (unit not given)): 70787 and 76872 and 65200
- Fluorescence intensity (SfurOBP2; 1-NPN 18 (unit not given)): 75833 and 70878 and 75400
- Fluorescence intensity (SfurOBP2; 1-NPN 20 (unit not given)): 67482 and 73624 and 78268
- Fluorescence intensity (SfurOBP2; 1-NPN 22 (unit not given)): 76334 and 74639 and 64277
- Kd (SfurOBP2; SfurOBP2, 2.0 µM protein, 50 mM Tris-HCl pH 7.4, read-out: dissociation constant of 1-NPN): 5.67 µM
